From patent publication US10143727B2, “Method using an Y1 receptor activator for treating an anticancer agent-induced nephrotoxic injury” (KYUNGPOOK NATIONAL UNIVERSITY INDUSTRY-ACADEMIC COOPERATION …, priority 2016, dated 2018)

How the values were obtained:
[1] = system: cisplatin-induced renal injury; assay: Creatinine and BUN assays in cisplatin-induced renal injury; assay type: in vivo, C57BL/6 mice; settings: cisplatin 15 mg per kg mice; test peptide 50 ug per kg i.p. daily for 3 days; vs cisplatin-treated mice
Protocol: (§1) Six- to eight-weeks old male or female C57BL/6 mice were purchased from the Jackson laboratory. A block randomization method was used to divide these animals into experimental groups. In order to eliminate bias, investigators were blinded during data collection and analysis. The mice were housed under a 12 hour day-night cycle. They were provided with free access to water and food pellets. This animal study was approved by the Kyungpook National University Institutional Animal Care and Use Committee.
(§2) Three days later, kidneys were collected and analyzed.
To monitor renal function, plasma levels of BUN and creatinine were determined using commercially available kits as described previously (See Pabla N et al., J Clin Invest 121, 2709-2722, 2011).

[2] = system: cisplatin-induced renal injury; assay: Histology (H&E staining) and morphological assessment of renal tissues; assay type: in vivo, C57BL/6 mice
Protocol: as §1, §2
(§3) Formaldehyde-fixed kidneys were dehydrated using graded alcohol series and paraffinized. Paraffin sections of 5 μm were stained with hematoxylin and eosin (H&E). Each parameter was determined for at least 6 different animals. TUNEL assays were performed using In Situ Cell Detection Kit, Fluorescein (Roche Diagnostic) according to the manufacturer's instructions. A pathologist quantified kidney damage in a double blinded manner using renal damage score, as previously described (See Jiang M et al., Am J Physiol Renal Physiol 287, F1140-1147, 2004). Briefly, tissues were stained with H&E. The degree of morphological involvement in renal dysfunction was determined using light microscopy.
Each parameter was determined for at least five different animals.

[3] = system: cisplatin-induced apoptosis in the kidney; assay: TUNEL assay of renal apoptosis; assay type: in vivo, C57BL/6 mice; settings: cisplatin 15 mg per kg mice; 50 ug per kg i.p. daily for 3 days
Protocol: as §1, §2, §3

[4] = system: p53-dependent apoptosis pathway; assay type: in vivo; settings: renal tissues of cisplatin-treated mice; 50 ug per kg i.p. daily for 3 days
Protocol: as §1, §2
Samples were immunoblotted as previously described (See Santos-Carvalho A et al., Cell Death Dis 4, e636, 2013). Primary antibodies against the following proteins were used: P53(mouse, 1: 1000, Cell Signaling Technologies, 2524), Bax (rabbit, 1: 1000, Cell Signaling Technologies, 2772), Bcl2 (rabbit, 1: 1000, Cell Signaling Technologies, 5114S), and β-actin (1: 1000, Santa Cruz, SC-1615). Densitometric quantification was performed using Image J software (US National Institutes of Health).
Real time RT-PCR was performed as previously described (See Hu L et al., BMB Rep 48, 583-588, 2015). […] Quantitative real-time PCR was performed using Corbett research RG-6000 real-time PCR instrument. […]

Molecule | Plasma concentration of blood urea nitrogen (BUN) [1] | Plasma concentration of creatinine [1] | Renal injury (H&E, tubular damage) ([2]; cisplatin 15 mg per kg mice, 50 ug per kg i.p. daily for 3 days, FIG. 3d) | Apoptotic cells in the kidney (TUNEL assay) [3] | Expression levels of p53 and pro-apoptotic genes such as Bax, Noxa, and Puma [4] | Apoptotic tubular cells in the renal cortex (H&E) ([2]; cisplatin 15 mg per kg alone) | Cisplatin-induced increase in apoptotic tubular cells in the renal cortex (H&E) ([2]; cisplatin 15 mg per kg mice, 50 ug per kg i.p. daily for 3 days)
[Leu31Pro34]NPY [Y1 agonist] | reduced | reduced | significantly reduced | decreased | suppressed | – | –
N.N.[Cl][Pt][Cl] [cisplatin, Cisplatin, reference compound] | – | – | – | – | – | increase | –
Neuropeptide Y [Neuropeptide Y (NPY)] | decreased | decreased | – | decrease | decreased | – | diminished
